Test results: patent US8969554B2, “6-acyl-1,2,4-triazine-3,5-dione derivative and herbicides” (Kumiai Chemical Industry Co., Ltd., priority 2010, dated 2015)

What was measured:
Type in all cases: in vivo
[1] = system: Scirpus juncoides Rocxb.; assay: Herbicidal activity by paddy field soil treatment (Test Example 1); design: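 index 0 to 10 in 10% steps of herbicidal effect with 10 meaning complete death and 0 below 10%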; conditions: applied on water surface, 1000 g of effective component per hectare, day 21 after the treatment
Method in brief: (§1)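 Flooded-paddy pre-emergence assay at 1000 g a.i./ha, applied to the water surface one day after sowing; visual herbicidal score at day 21 in greenhouse.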

[2] = system: Echinochloa oryzicola; assay: as above; design: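 index 0 to 10 in 10% steps of herbicidal effect with 10 meaning complete death and 0 below 10%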; conditions: 1000 g of effective component per hectare, evaluated on day 21 after the treatment, criteria of Table 72
Method in brief: as §1

[3] = system: Monochoria vaginalis; assay: as above; design: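 index 0 to 10 in 10% steps of herbicidal effect with 10 meaning complete death and 0 below 10%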; conditions: 1000 g of effective component per hectare, evaluated on day 21 after the treatment, criteria of Table 72
Method in brief: as §1

[4] = system: A. retroflexus; assay: Herbicidal activity by field foliage treatment (Test example 3); design: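 index 0 to 10 in 10% steps of herbicidal effect with 10 meaning complete death and 0 below 10%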; conditions: 1000 g effective component per hectare, day 14 after the treatment
Method in brief: (§2)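 Test plants, grown from seed for two weeks in a greenhouse, are treated by foliar application of a wettable-powder formulation in water at a rate of 1000 g effective component per hectare. Damage is assessed 14 days later.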

[5] = system: Indian millet; assay: as above; design: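 index 0 to 10 in 10% steps of herbicidal effect with 10 meaning complete death and 0 below 10%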; conditions: 1000 g effective component per hectare, day 14 after the treatment
Method in brief: as §2

[6] = system: Echinochloa crus-galli; assay: as above; design: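 index 0 to 10 in 10% steps of herbicidal effect with 10 meaning complete death and 0 below 10%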; conditions: 1000 g effective component per hectare, day 14 after the treatment
Method in brief: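 Potted field-soil plants grown 2 weeks in a greenhouse were sprayed over the whole foliage with diluted wettable powder at 1000 L/ha, delivering 1000 g active ingredient per hectare. Herbicidal effect scored by visual criteria 14 days after treatment.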

[7] = system: Setaria viridis; assay: as above; conditions: 1000 g effective component per hectare, day 14 after the treatment;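 note: index 0 to 10 in 10% steps of herbicidal effect with 10 meaning complete death and 0 below 10%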
Procedure: Test example 3 Test for Determining Herbicidal Activity by Field Foliage Treatment A 80 cm^2 wide plastic pot was filled with a field soil and seeds of each of Indian millet and A. retroflexus were sowed and then incubated for 2 weeks in a green house. The wettable powder produced with reference to the Formulation example 1 was diluted water, and applied from the air to entire body of the plant as foliage treatment by using a small sprayer in an amount of 1000 liters per hectare so that the effective component is 1000 g per hectare. After that, the plants were cultivated in a greenhouse, and on day 14 after the treatment, evaluation was made by the criteria described in Table 72 for determining the herbicidal effects.

[8] = system: A. retroflexus; assay: Herbicidal activity by field soil treatment (Test example 2); design: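 index 0 to 10 in 10% steps of herbicidal effect with 10 meaning complete death and 0 below 10%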; conditions: 1000 g effective component per hectare, day 21 after the treatment
Method in brief: (§3)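 A wettable powder formulation, diluted with water, is applied to soil over just-sown seeds at an effective rate of 1000 g/ha. Effects are judged 21 days later after greenhouse growth.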

[9] = system: Indian millet; assay: as above; design: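 index 0 to 10 in 10% steps of herbicidal effect with 10 meaning complete death and 0 below 10%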; conditions: 1000 g effective component per hectare, day 21 after the treatment
Method in brief: as §3

[10] = system: Echinochloa crus-galli; assay: as above; design: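 index 0 to 10 in 10% steps of herbicidal effect with 10 meaning complete death and 0 below 10%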; conditions: 1000 g effective component per hectare, day 21 after the treatment
Method in brief: as §3

SMILES	herbicidal effect index, S. juncoides Rocxb. [1]	Herbicidal effects index number, Echinochloa oryzicola [2]	Herbicidal effects index number, Monochoria vaginalis [3]	herbicidal effect index, Amaranthus retroflexus [4]	herbicidal effect index, Abutilon theophrasti [5]	herbicidal effect index, Echinochloa crus-galli [6]	herbicidal effect index, Setaria viridis [7]	herbicidal effect index, Amaranthus retroflexus [8]	herbicidal effect index, Abutilon theophrasti [9]	herbicidal effect index, Echinochloa crus-galli [10]
COc1cc(-n2c(=O)c(C(=O)C3=C(O)C(C)(C)C(=O)C(C)(C)C3=O)nn(C)c2=O)cc(OC)c1OC [VI-97]	10	10	10	10	10	7	10			
CC(=O)Cn1c(=O)c(C(=O)C2=C(O)CCCC2=O)nn(C)c1=O [I-328]	10	10	10	10	10	7	7			
CN(c1ccc(F)cc1)n1c(=O)c(C(=O)O)nn(C)c1=O [V-370]	10	10	10	10	9	7		10	10	7
O=C1CCCC(O)=C1C(=O)c1nn(CC(F)(F)F)c(=O)n(-c2ccccc2)c1=O [I-477]	10	10	10	10	9	9		10	10	9
Cn1nc(C(=O)C2=C(O)CCCC2=O)c(=O)n(-c2cccc(C(F)(F)F)c2)c1=O [I-64]	10	10	10	10	10	10		10	10	10
Cc1cccc(F)c1-n1c(=O)c(C(=O)C2=C(O)CCCC2=O)nn(C)c1=O [I-110]	10	10	10	9	9	9		10	10	7
COc1cc(OC)nc(-n2c(=O)c(C(=O)C3=C(O)CCCC3=O)nn(C)c2=O)n1 [I-273]	10	9	9	10	9	10		10	7	9
Cn1nc(C(=O)C2=C(O)CCCC2=O)c(=O)n(-c2ccc(C(F)(F)F)cc2)c1=O [I-65]	10	10	10	10	10	8		10	10	10
COc1ccc(-n2c(=O)c(C(=O)C3=C(O)CCCC3=O)nn(C)c2=O)cc1C [I-149]	10	9	10	10	10	8		10	10	8
COc1cccc(-n2c(=O)c(C(=O)C3=C(O)CCCC3=O)nn(C)c2=O)c1 [I-61]	10	8	10	10	10	9		10	10	8
CCON=C(C)Cn1c(=O)c(C(=O)O)nn(C)c1=O [V-371]	9	10	10	10	9	8		10	10	9
COc1cc(Cl)cc(-n2c(=O)c(C(=O)C3=C(O)CCCC3=O)nn(C)c2=O)c1 [I-120]	10	8	10	10	9	9		10	9	8
Cc1cc(C)cc(-n2c(=O)c(C(=O)C3=C(O)CCCC3=O)nn(C)c2=O)c1 [I-88]	10	10	10	10	9	8		10	10	8
COc1ccc(-n2c(=O)c(C(=O)C3=C(O)CCCC3=O)nn(C)c2=O)cn1 [I-287]	10	10	10	10	9	8		10	9	10
COc1cc(-n2c(=O)c(C(=O)C3=C(O)CCCC3=O)nn(C)c2=S)cc(OC)c1OC [I-464]	10	10	10	10	10		7	7		
CCN(c1ccccc1)n1c(=O)c(C(=O)C2=C(O)CCCC2=O)nn(C)c1=O [I-474]	10	10	10	9	9	7		10	10	7
COc1ccc(-n2c(=O)c(C(=O)C3=C(O)CCCC3=O)nn(C)c2=O)cc1Cl [I-119]	10	9	10	10	9	9		10	9	8
Cc1cccc(-n2c(=O)c(C(=O)C3=C(O)CCCC3=O)nn(C)c2=O)n1 [I-279]	10	8	8	10	10	9		10	10	7
